Assay results taken from US8871756B2 (Hoffmann-La Roche Inc., priority 2011, dated 2014).

System: RSV Long strain
Assay: Viral cytopathic effect (CPE) assay, anti-RSV activity
Assay type: cell-based, Respiratory Syncytial Virus
Conditions: RSV Long strain (ATCC), cell viability after 6 days, Cell Counting kit-8
Method in brief: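 Cells (6×10^3/well, DMEM with 10% FBS) were infected next day with RSV Long strain, at a dose giving approximately 80–90% CPE, alongside serial half-log compound dilutions. Viability was read after 6 days by CCK-8 absorbance at 450 nm (reference 630 nm), and EC50 was derived from it.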

[1] = human respiratory syncytial virus, 144 h

| Structure (SMILES) | EC50 [1] [µM] | EC50 [µM] |
| --- | --- | --- |
| COc1ccc2c(c1)S(=O)(=O)CCN(c1cc(N)c3cc(C)ccc3n1)C2 [Example 20-1, 2-(8-Methoxy-1,1-dioxido-2,3-dihydro-1,4-benzothiazepin-4(5H)-yl)-6-methylquinolin-4-amine] | 0.073 |  |
| Cc1ccc2nc(N3CCS(=O)(=O)c4ccccc4C3)cc(NCC3(N)COC3)c2c1F [Example 3-25, N-[(3-Aminooxetan-3-yl)methyl]-2-(1,1-dioxido-2,3-dihydro-1,4-benzothiazepin-4(5H)-yl)-5-fluoro-6-methylquinolin-4-amine] | 0.022 |  |
| Cc1ccc2nc(N3CCS(=O)(=O)c4ccccc4C3)nc(NCC(F)CCN)c2c1 (stereo not shown) [Example 62-5, N^˜1^˜-[2-(1,1-Dioxido-2,3-dihydro-1,4-benzothiazepin-4(5H)-yl)-6-methylquinazolin-4-yl]-2-fluorobutane-1,4-diamine] |  | 0.017 |
| Cc1ccc2nc(N3CC[S+]([O-])c4ccccc4C3)nc(NCC3(NCc4ccccc4)COC3)c2c1 (stereo not shown) [Example 55-2, N-{[3-(Benzylamino)oxetan-3-yl]methyl}-6-methyl-2-(1-oxido-2,3-dihydro-1,4-benzothiazepin-4(5H)-yl)quinazolin-4-amine] | 0.202 |  |
| NCCCNc1cc(N2CCS(=O)(=O)c3ccccc3C2)nc2cccc(Cl)c12 [Example 9-13, N-[5-Chloro-2-(1,1-dioxido-2,3-dihydro-1,4-benzothiazepin-4(5H)-yl)quinolin-4-yl]propane-1,3-diamine] | 0.701 |  |
| Cc1ccc2nc(N3CCS(=O)(=O)c4ccccc4C3)cc(NCC3(CN)CSC3)c2c1 [Example 6-1, N-{[3-(Aminomethyl)thietan-3-yl]methyl}-2-(1,1-dioxido-2,3-dihydro-1,4-benzothiazepin-4(5H)-yl)-6-methylquinolin-4-amine] | 0.025 |  |
| Cc1ccc2nc(N3CCC(F)(F)c4ccccc4C3)cc(NCCO)c2c1 [Example 111-5, 2-{[2-(5,5-Difluoro-1,3,4,5-tetrahydro-2H-2-benzazepin-2-yl)-6-methylquinolin-4-yl]amino}ethanol] | 1.64 |  |
| Cc1ccc2nc(N3CCC(F)(F)c4ccccc4C3)cc(NCC3(CN)CS(=O)(=O)C3)c2c1 [Example 112-1, N-{[3-(Aminomethyl)-1,1-dioxidothietan-3-yl]methyl}-2-(5,5-difluoro-1,3,4,5-tetrahydro-2H-2-benzazepin-2-yl)-6-methylquinolin-4-amine] | 3.74 |  |
| CO/N=C1\CCN(c2cc(NCC3(N)COC3)c3cc(C)ccc3n2)Cc2ccccc21 [Example 112-2, N-[(3-Aminooxetan-3-yl)methyl]-2-[(5E)-5-(methoxyimino)-1,3,4,5-tetrahydro-2H-2-benzazepin-2-yl]-6-methylquinolin-4-amine] | 0.092 |  |
| Cc1ccc2nc(N3CCS(=O)(=O)c4ccccc4C3)cc(NCCS(C)(=N)=O)c2c1 (stereo not shown) [Example 77, 2-(1,1-Dioxido-2,3-dihydro-1,4-benzothiazepin-4(5H)-yl)-6-methyl-N-[2-(S-methylsulfonimidoyl)ethyl]quinolin-4-amine] | 8.78 |  |
| Cc1ccc2nc(N3CCCc4ccc(F)cc4C3)cc(NCCN)c2c1 [Example 118-4, N-[2-(8-Fluoro-1,3,4,5-tetrahydro-2H-2-benzazepin-2-yl)-6-methylquinolin-4-yl]ethane-1,2-diamine] | 0.104 |  |
| Cc1ccc2nc(N3CCS(=O)(=O)c4ccccc4C3)cc(NCCN(C)C)c2c1 [Example 3-32, N′-[2-(1,1-Dioxido-2,3-dihydro-1,4-benzothiazepin-4(5H)-yl)-6-methylquinolin-4-yl]-N,N-dimethylethane-1,2-diamine] | 0.037 |  |
| CCOc1ccc2c(c1)CN(c1cc(NCCN)c3ccccc3n1)CCC2 [Example 121, N-[2-(8-Ethoxy-1,3,4,5-tetrahydro-2H-2-benzazepin-2-yl)quinolin-4-yl]ethane-1,2-diamine] | 1.1 |  |
| NCCCNc1cc(N2CCS(=O)(=O)c3ccccc3C2)nc2ccc(OC(F)F)cc12 [Example 17-3, N-[6-(Difluoromethoxy)-2-(1,1-dioxido-2,3-dihydro-1,4-benzothiazepin-4(5H)-yl)quinolin-4-yl]propane-1,3-diamine] | 2.17 |  |
| Cc1ccc2nc(N3CCS(=O)(=O)c4ccccc4C3)cc(NCC(C)N)c2c1 (stereo not shown) [Example 5-5, N˜1˜-[2-(1,1-Dioxido-2,3-dihydro-1,4-benzothiazepin-4(5H)-yl)-6-methylquinolin-4-yl]propane-1,2-diamine] | 0.014 |  |
| NCCCNc1cc(N2CCS(=O)(=O)c3ccccc3C2)nc2ccc(C(F)F)cc12 [Example 9-29, N-[6-(Difluoromethyl)-2-(1,1-dioxido-2,3-dihydro-1,4-benzothiazepin-4(5H)-yl)quinolin-4-yl]propane-1,3-diamine] | 0.024 |  |
| CC(=O)NCCCNc1cc(N2CCS(=O)(=O)c3ccccc3C2)nc2ccc(C)cc12 [Example 63-3, N-(3-{[2-(1,1-Dioxido-2,3-dihydro-1,4-benzothiazepin-4(5H)-yl)-6-methylquinolin-4-yl]amino}propyl)acetamide] | 0.007 |  |
| Cc1ccc2nc(N3CCC(F)(F)c4ccccc4C3)nc(NCC3(N)CS(=O)(=O)C3)c2c1 [Example 116-2, N-[(3-Amino-1,1-dioxidothietan-3-yl)methyl]-2-(5,5-difluoro-1,3,4,5-tetrahydro-2H-2-benzazepin-2-yl)-6-methylquinazolin-4-amine] | 0.309 |  |
| Cc1ccc2nc(N3CCS(=O)(=O)c4ccccc4C3)cc(NCCCCN)c2c1 [Example 9-19, N-[2-(1,1-Dioxido-2,3-dihydro-1,4-benzothiazepin-4(5 H)-yl)-6-methylquinolin-4-yl]butane-1,4-diamine] | 0.0007 |  |
| Cc1ccc2nc(N3CCS(=O)(=O)c4ccccc4C3)cc(N3C[C@@H](O)[C@H](N4CCN(C)CC4)C3)c2c1 [Example 8-6, (3R,4R)-1-[2-(1,1-Dioxido-2,3-dihydro-1,4-benzothiazepin-4(5H)-yl)-6-methylquinolin-4-yl]-4-(4-methylpiperazin-1-yl)pyrrolidin-3-ol] | 3.77 |  |
| NCC1(CNc2cc(N3CCS(=O)(=O)c4ccccc4C3)nc3ccc(Cl)cc23)COC1 [Example 3-51, N-{[3-(Aminomethyl)oxetan-3-yl]methyl}-6-chloro-2-(1,1-dioxido-2,3-dihydro-1,4-benzothiazepin-4(5H)-yl)quinolin-4-amine] | 0.004 |  |
| NCCNc1cc(N2CCCc3ccccc3C2)nc2ccc(OC(F)F)cc12 [Example 118-18, N-[6-(Difluoromethoxy)-2-(1,3,4,5-tetrahydro-2H-2-benzazepin-2-yl)quinolin-4-yl]ethane-1,2-diamine] | 0.973 |  |
| Cc1ccc2nc(N3CCS(=O)(=O)c4ccccc4C3C)cc(NCC3(N)COC3)c2c1 (stereo not shown) [Example 2-8, N-[(3-Aminooxetan-3-yl)methyl]-6-methyl-2-(5-methyl-1,1-dioxido-2,3-dihydro-1,4-benzothiazepin-4(5H)-yl)quinolin-4-amine] | 0.055 |  |

Further lines, results first:

| EC50 [1] [µM] | EC50 [µM] | Structure (SMILES) |
| --- | --- | --- |
| 0.01 |  | Cc1ccc2nc(N3CCC(C)(O)c4ccccc4C3)nc(NCC3(N)COC3)c2c1 (stereo not shown) [Example 115, 2-(4-{[(3-Aminooxetan-3-yl)methyl]amino}-6-methylquinazolin-2-yl)-5-methyl-2,3,4,5-tetrahydro-1H-2-benzazepin-5-ol] |
| 0.004 |  | COc1ccc2c(c1)CN(c1cc(NCC3(N)COC3)c3cc(C)ccc3n1)CCS2(=O)=O [Example 1-5, N-[(3-Aminooxetan-3-yl)methyl]-2-(7-methoxy-1,1-dioxido-2,3-dihydro-1,4-benzothiazepin-4(5H)-yl)-6-methylquinolin-4-amine] |
| 0.226 |  | Cc1cccc2c(NCCCCCCCCN)cc(N3CCS(=O)(=O)c4ccccc4C3)nc12 [Example 12-7, N-[2-(1,1-Dioxido-2,3-dihydro-1,4-benzothiazepin-4(5H)-yl)-8-methylquinolin-4-yl]octane-1,8-diamine] |
| 0.626 |  | COc1ccc2c(c1)CCCN(c1cc(NCCN)c3ccccc3n1)C2 [Example 118-15, N-[2-(7-Methoxy-1,3,4,5-tetrahydro-2H-2-benzazepin-2-yl)quinolin-4-yl]ethane-1,2-diamine] |
| 0.993 |  | Cc1ccc2nc(N3CCS(=O)(=O)c4ccccc4C3)cc(NC(=O)c3cccnc3)c2c1 [Example 47-4, N-[2-(1,1-Dioxido-2,3-dihydro-1,4-benzothiazepin-4(5H)-yl)-6-methylquinolin-4-yl]pyridine-3-carboxamide] |
| 0.066 |  | Cc1ccc2nc(N3CCC(F)(F)c4ccccc4C3)cc(N3CCC(N)C3)c2c1 (stereo not shown) [Example 111-4, 1-[2-(5,5-Difluoro-1,3,4,5-tetrahydro-2H-2-benzazepin-2-yl)-6-methylquinolin-4-yl]pyrrolidin-3-amine] |
| 0.022 |  | Cc1ccc2nc(N3CCS(=O)(=O)c4ccccc4C3)cc(NC[C@H](C)N)c2c1 [Example 5-8, (2S)—N˜1˜-[2-(1,1-Dioxido-2,3-dihydro-1,4-benzothiazepin-4(5H)-yl)-6-methylquinolin-4-yl]propane-1,2-diamine] |
| 2.96 |  | Cc1ccc2nc(N3CCS(=O)(=O)c4ccccc4C3)cc(NCCc3nn[nH]n3)c2c1 [Example 84, 2-(1,1-Dioxido-2,3-dihydro-1,4-benzothiazepin-4(5H)-yl)-6-methyl-N-[2-(1H-tetrazol-5-yl)ethyl]quinolin-4-amine] |
| 0.026 |  | Cc1ccc2nc(N3CCS(=O)(=O)c4ccccc4C3)cc(N3C[C@@H](O)[C@@H](N)C3)c2c1 (relative stereo) [Example 13, cis-4-amino-1-[2-(1,1-Dioxido-2,3-dihydro-1,4-benzothiazepin-4(5H)-yl)-6-methylquinolin-4-yl]pyrrolidin-3-ol] |
| 0.002 |  | Cc1ccc2nc(N3CCS(=O)(=O)c4ccccc4C3)cc(NCC(O)CN)c2c1 (stereo not shown) [Example 9-7, 1-Amino-3-{[2-(1,1-dioxido-2,3-dihydro-1,4-benzothiazepin-4(5H)-yl)-6-methylquinolin-4-yl]amino}propan-2-ol] |
| 0.874 |  | Cc1ccc2nc(N3CCS(=O)(=O)c4ccccc4C3)cc(Nc3ccon3)c2c1 [Example 3-64, 2-(1,1-Dioxido-2,3-dihydro-1,4-benzothiazepin-4(5H)-yl)-6-methyl-N-(1,2-oxazol-3-yl)quinolin-4-amine] |
